Test results from patent US8822464B2, “N-aryl-piperazine derivatives and their use as positive allosteric modulators of mGluR5 receptors” (Boehringer Ingelheim International GmbH, priority 2011, dated 2014).

Each molecule was assayed against T1, human recombinant mGluR5 (Homo sapiens, UniProt P41594) (assay: positive modulation of mGluR5, calcium based FLIPR assay in HEK 293 cells). Conditions: HEK 293 cell line expressing human recombinant mGluR5; peak height of Ca release fluorescence signal after glutamate at approximately 5% basal stimulation; nonlinear regression.
T1 construct: expressed in transfected cells; host or cells: HEK 293 cell line; cultured with tetracycline, hygromycin and geneticin; tetracycline withdrawn 3-7 days before the assay
T1 sequence (P41594 21-1212): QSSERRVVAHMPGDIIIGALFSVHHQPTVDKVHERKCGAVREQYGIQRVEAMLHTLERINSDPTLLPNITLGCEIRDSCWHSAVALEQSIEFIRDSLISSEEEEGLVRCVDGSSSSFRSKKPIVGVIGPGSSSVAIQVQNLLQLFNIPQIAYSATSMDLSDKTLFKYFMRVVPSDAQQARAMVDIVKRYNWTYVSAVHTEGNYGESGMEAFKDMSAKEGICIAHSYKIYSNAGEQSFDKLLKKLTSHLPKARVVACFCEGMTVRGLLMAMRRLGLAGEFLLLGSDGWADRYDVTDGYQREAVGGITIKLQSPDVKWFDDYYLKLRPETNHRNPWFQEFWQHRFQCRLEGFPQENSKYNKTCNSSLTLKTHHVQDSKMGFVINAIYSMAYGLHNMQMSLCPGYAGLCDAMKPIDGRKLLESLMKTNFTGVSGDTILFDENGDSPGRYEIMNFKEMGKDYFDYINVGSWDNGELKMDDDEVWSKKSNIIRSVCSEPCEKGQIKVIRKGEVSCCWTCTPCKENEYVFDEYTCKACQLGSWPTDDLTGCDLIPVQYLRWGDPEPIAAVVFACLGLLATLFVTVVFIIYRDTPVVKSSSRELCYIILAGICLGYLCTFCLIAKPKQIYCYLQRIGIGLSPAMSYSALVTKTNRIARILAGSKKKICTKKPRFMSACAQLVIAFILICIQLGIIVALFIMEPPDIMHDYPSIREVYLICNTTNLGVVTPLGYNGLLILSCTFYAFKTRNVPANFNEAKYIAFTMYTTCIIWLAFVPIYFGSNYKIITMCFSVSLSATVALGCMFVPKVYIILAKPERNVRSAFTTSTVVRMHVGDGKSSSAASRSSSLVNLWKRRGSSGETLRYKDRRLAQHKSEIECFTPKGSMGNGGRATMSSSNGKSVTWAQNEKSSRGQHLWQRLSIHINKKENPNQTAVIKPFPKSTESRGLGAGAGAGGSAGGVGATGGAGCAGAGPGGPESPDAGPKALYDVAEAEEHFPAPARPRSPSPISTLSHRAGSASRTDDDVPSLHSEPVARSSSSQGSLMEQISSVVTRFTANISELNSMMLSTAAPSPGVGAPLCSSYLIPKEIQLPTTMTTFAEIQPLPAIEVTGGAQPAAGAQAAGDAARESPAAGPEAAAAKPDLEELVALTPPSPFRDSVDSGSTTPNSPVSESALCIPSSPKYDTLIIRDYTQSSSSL
Method: The positive modulation of mGluR5 is measured in a HEK 293 cell line expressing human recombinant mGluR5 and is detected with calcium based FLIPR assay. The cells are cultured with DMEM supplemented with 10% FCS, 2 μg/mL tetracycline, 100 μg/mL hygromycin and 500 μg/mL gneticin. The cell culture media is exchanged for tetracycline-free cell culture media 3-7 days before the assay. One day before the assay the cell culture medium is exchanged to DMEM without glutamine and phenol red and supplemented with 10% FCS, 100 μg/mL hygromycin and 500 μg/mL geneticin. On the assay day, the medium of the subconfluent cultures is removed and the cells are detached by addition of 2.5 ml EDTA(0.02%) per 175 cm2 culture flask for 1 minute. The cells are resuspend in Ringer solution (140 mM NaCl, 5 mM KCl, 2.5 mM CaCl2, 1.5 mM MgCl2, 5 mM Glucose, 10 mM Hepes; adjusted to pH 7.4 with NaOH), pooled and Ringer solution added to adjust the volume to 50 mL. The cell suspension is centrifuged for 5 min at 1500 U/min (425 g). The supernatant is removed and the cells washed a second time with 50 ml fresh Ringer solution and centrifuged again as before. The supernatant is again removed and the pellet resuspended in Ringer solution to 1,000,000 cells/ml (1×10^6 cells/mL). The cells are plated onto BD BioCoat Poly-D-Lysine 384 well plates (20.000 cells/well; 20 μl/well). The lid covered plates are then incubated until use at 37° C./10% CO2. For dye loading, 20 μl of Calcium-4 assay kit solution (prepared according to the manufacturer's description in Ringer solution) are added to the cells and the plates are incubated for 80 min 37° C. and then 10 min at room temperature.
Controls, Compound Dilution and Assay Execution:
Each assay plate contained wells with “high” and “low” controls:
Low controls 1% DMSO/ringer solution+basal glutamate activation (defined as 100% CTL).
High controls 10 μM CDPPB+basal glutamate activation (defined as 200% CTL).
Test compounds are dissolved and diluted in DMSO to 100-fold the desired concentrations. In a second step, the compounds are diluted in Ringer solution such that the compounds are 4-fold more concentrated than the desired final assay concentration. The final DMSO concentration was 1%.
20 μl of each compound solution are then transferred to the assay plate and the Ca2+ kinetic is measured to determine any intrinsic compound activity. After 5 min incubation in the FLIPR device, the second stimulation with 20 μl of glutamate in Ringer solution (glutamate concentration adjusted to approximately 5% basal stimulation of the maximal possible glutamate effect) is added and the kinetic Ca2+ response of the wells was measured for the modulation effect.
The peak height of the Ca release related fluorescence signal (9-66) is used for the EC50. The EC50 of the modulation is calculated over a nonlinear regression with GraphPad Prism (Table 1).

SMILES	EC50 [nM]
O=C(Cn1nc(-c2ccc(F)cn2)cc1-c1ccc(F)cc1)N1CCN(c2cccnn2)CC1 [Example 7.01.64]	677
O=C(Cn1nc(-c2ccc(F)cc2)cc1-c1ccc(F)cn1)N1CCN(c2ncccn2)CC1 [Example 7.01.65]	253
O=C(Cn1nc(-c2ccccc2)cc1-c1ccc(F)cn1)N1CCN(c2ncccn2)CC1 [Example 7.01.66]	957
CCc1cc(-c2ccc(F)c(C)c2)nn1CC(=O)N1CCN(c2cc(OC)ncn2)CC1 [Example 7.01.67]	61
CCc1cc(-c2ccc(F)c(C)c2)nn1CC(=O)N1CCN(c2cc(OC)ccn2)CC1 [Example 7.01.68]	74
CCc1cc(-c2ccc(F)c(C)c2)nn1CC(=O)N1CCN(c2ncccn2)CC1 [Example 7.01.70]	41
CCc1cc(-c2ccc(F)c(C)c2)nn1CC(=O)N1CCN(c2ncc(OC)cn2)CC1 [Example 7.01.71]	51
CCc1cc(-c2ccc(F)c(C)c2)nn1CC(=O)N1CCN(c2ncc(F)cn2)CC1 [Example 7.01.72]	63
CCc1cc(-c2ccc(F)cc2)nn1CC(=O)N1CCN(c2ccccn2)CC1 [Example 7.01.73]	419
CCc1cc(-c2ccc(F)cc2)nn1CC(=O)N1CCN(c2ncccn2)CC1 [Example 7.01.74]	253
CCc1cc(-c2ccc(F)cc2)nn1CC(=O)N1CCN(c2cc(OC)ccn2)CC1 [Example 7.01.75]	421
CCc1cc(-c2ccc(F)cc2)nn1CC(=O)N1CCN(c2ncc(OC)cn2)CC1 [Example 7.01.76]	388
CCCc1cc(-c2ccc(F)c(C)c2)nn1CC(=O)N1CCN(c2cc(OC)ccn2)CC1 [Example 7.01.80]	45
CCCc1cc(-c2ccc(F)c(C)c2)nn1CC(=O)N1CCN(c2ncccn2)CC1 [Example 7.01.81]	13
CCCc1cc(-c2ccc(F)c(C)c2)nn1CC(=O)N1CCN(c2ncc(OC)cn2)CC1 [Example 7.01.82]	33
CCCc1cc(-c2ccc(F)c(C)c2)nn1CC(=O)N1CCN(c2ccccn2)CC1 [Example 7.01.83]	52
CCCc1cc(-c2ccc(F)c(C)c2)nn1CC(=O)N1CCN(c2cccnn2)CC1 [Example 7.01.84]	67
CCc1cc(-c2ccc(C)c(C)c2)nn1CC(=O)N1CCN(c2ncccn2)CC1 [Example 7.01.87]	69
COc1cc(N2CCN(C(=O)Cn3nc(-c4ccc(F)cc4)cc3C(C)C)CC2)ncn1 [Example 7.01.88]	366
CCc1cc(-c2ccc(C)c(C)c2)nn1CC(=O)N1CCN(c2ccccn2)CC1 [Example 7.01.91]	195
CCc1cc(-c2ccc(C)c(C)c2)nn1CC(=O)N1CCN(c2cc(OC)ccn2)CC1 [Example 7.01.92]	302

SMILES	EC50 [nM]
CCc1cc(-c2ccc(C)c(C)c2)nn1CC(=O)N1CCN(c2cc(OC)ncn2)CC1 [Example 7.01.93]	170
CCc1cc(-c2cccc(C)c2)nn1CC(=O)N1CCN(c2ncccn2)CC1 [Example 7.01.94]	136
Cc1ccc(-c2cc(-c3ccccc3)n(CC(=O)N3CCN(c4ncccn4)CC3)n2)cc1C [Example 7.01.98]	13
CCc1cc(-c2ccc(C)c(C)c2)nn1CC(=O)N1CCN(c2ncc(OC)cn2)CC1 [Example 7.01.99]	129
CCc1cc(-c2cccc(C)c2)nn1CC(=O)N1CCN(c2ncc(OC)cn2)CC1 [Example 7.01.100]	126
Cc1ccc(-c2cc(-c3ccccc3)n(CC(=O)N3CCN(c4ccccn4)CC3)n2)nc1 [Example 7.01.106]	35
COCCCc1cc(-c2ccc(F)c(C)c2)nn1CC(=O)N1CCN(c2cc(OC)ccn2)CC1 [Example 7.01.109]	140
COCCCc1cc(-c2ccc(F)c(C)c2)nn1CC(=O)N1CCN(c2cc(OC)ncn2)CC1 [Example 7.01.110]	137
COCCCc1cc(-c2ccc(F)c(C)c2)nn1CC(=O)N1CCN(c2ncc(OC)cn2)CC1 [Example 7.01.112]	120
CCc1cc(-c2cccc(Cl)c2)nn1CC(=O)N1CCN(c2ncccn2)CC1 [Example 7.01.113]	94
CCc1cc(-c2cccc(Cl)c2)nn1CC(=O)N1CCN(c2ccccn2)CC1 [Example 7.01.114]	153
CCc1cc(-c2cccc(Cl)c2)nn1CC(=O)N1CCN(c2cc(OC)ncn2)CC1 [Example 7.01.116]	89
Cc1cc(-c2cc(CC(C)C)n(CC(=O)N3CCN(c4ccccn4)CC3)n2)ccc1F [Example 7.01.117]	28
Cc1cc(-c2cc(CC(C)C)n(CC(=O)N3CCN(c4ncccn4)CC3)n2)ccc1F [Example 7.01.118]	18
COc1ccnc(N2CCN(C(=O)Cn3nc(-c4ccc(C)cn4)cc3-c3ccccc3)CC2)c1 [Example 7.01.119]	19
COc1cc(N2CCN(C(=O)Cn3nc(-c4ccc(C)cn4)cc3-c3ccccc3)CC2)ncn1 [Example 7.01.120]	20
COc1cc(N2CCN(C(=O)Cn3nc(-c4ccc(F)c(C)c4)cc3CC(C)C)CC2)ncn1 [Example 7.01.121]	34
COc1cnc(N2CCN(C(=O)Cn3nc(-c4ccc(F)c(C)c4)cc3CC(C)C)CC2)nc1 [Example 7.01.123]	36
Cc1ccc(-c2cc(-c3ccccc3)n(CC(=O)N3CCN(c4ncccn4)CC3)n2)nc1C [Example 7.01.124]	8
CCc1cccc(-c2cc(CC)n(CC(=O)N3CCN(c4ccccn4)CC3)n2)c1 [Example 7.01.128]	204
CCc1cccc(-c2cc(CC)n(CC(=O)N3CCN(c4ncc(F)cn4)CC3)n2)c1 [Example 7.01.130]	471

The remaining molecules from weak to strong by EC50, led by results:

EC50 [nM]	SMILES
1260	COCCCc1cc(-c2ccc(F)c(C)c2)nn1CC(=O)N1CCN(c2ccccn2)CC1 [Example 7.01.108]
723	CCc1cc(-c2ccc(F)cc2)nn1CC(=O)N1CCN(c2ncc(F)cn2)CC1 [Example 7.01.78]
697	CCc1cc(-c2ccc(F)cc2)nn1CC(=O)N1CCN(c2cc(OC)ncn2)CC1 [Example 7.01.77]
577	COc1cnc(N2CCN(C(=O)Cn3nc(-c4ccc(F)cc4)cc3C(C)C)CC2)nc1 [Example 7.01.89]
371	COc1ccnc(N2CCN(C(=O)Cn3nc(-c4ccc(F)cc4)cc3C(C)C)CC2)c1 [Example 7.01.85]
237	CCc1cc(-c2cccc(C)c2)nn1CC(=O)N1CCN(c2ccccn2)CC1 [Example 7.01.95]
212	CCc1cccc(-c2cc(CC)n(CC(=O)N3CCN(c4cc(OC)ncn4)CC3)n2)c1 [Example 7.01.129]
181	CCc1cc(-c2cccc(C)c2)nn1CC(=O)N1CCN(c2cc(OC)ncn2)CC1 [Example 7.01.97]
168	CCc1cc(-c2cccc(C)c2)nn1CC(=O)N1CCN(c2cc(OC)ccn2)CC1 [Example 7.01.96]
157	CC(C)c1cc(-c2ccc(F)cc2)nn1CC(=O)N1CCN(c2ncccn2)CC1 [Example 7.01.90]
79	CCc1cc(-c2ccc(F)c(C)c2)nn1CC(=O)N1CCN(c2ccccn2)CC1 [Example 7.01.69]
65	CCc1cc(-c2cccc(Cl)c2)nn1CC(=O)N1CCN(c2ncc(OC)cn2)CC1 [Example 7.01.115]
64	COCCCc1cc(-c2ccc(F)c(C)c2)nn1CC(=O)N1CCN(c2ncccn2)CC1 [Example 7.01.107]
51	Cc1cc(-c2cc(CC(C)C)n(CC(=O)N3CCN(c4ncc(F)cn4)CC3)n2)ccc1F [Example 7.01.122]
39	Cc1cc(-c2cc(C)n(CC(=O)N3CCN(c4ncccn4)CC3)n2)ccc1F [Example 7.01.104]
26	CCCc1cc(-c2ccc(F)c(C)c2)nn1CC(=O)N1CCN(c2cc(OC)ncn2)CC1 [Example 7.01.79]
24	COc1cnc(N2CCN(C(=O)Cn3nc(-c4ccc(C)c(C)c4)cc3-c3ccccc3)CC2)nc1 [Example 7.01.103]
24	Cc1ccc(-c2cc(-c3ccccc3)n(CC(=O)N3CCN(c4ncccn4)CC3)n2)nc1 [Example 7.01.111]
20	Cc1ccc(-c2cc(-c3ccccc3)n(CC(=O)N3CCN(c4ccccn4)CC3)n2)cc1C [Example 7.01.102]
17	COc1cc(N2CCN(C(=O)Cn3nc(-c4ccc(C)c(C)c4)cc3-c3ccccc3)CC2)ncn1 [Example 7.01.101]
